In ChEMBL document CHEMBL4371076 (J Med Chem, 2019):

Experiments:
[1] = biological target: Sodium channel protein type 5 subunit alpha (Homo sapiens, UniProt Q14524); experiment: Inhibition of human Nav1.5 expressed in HEK293 cells after 600 secs at -50 mV holding potential by ion works barracuda population patch clamp method; format: cell-based
[2] = biological target: T1, Sodium channel protein type 9 subunit alpha (Homo sapiens, UniProt Q15858); experiment: Inhibition of recombinant human Nav1.7 expressed in HEK293 cells at -70 mV holding potential by patch clamp electrophysiology method; format: cell-based
[3] = Metabolic stability in human liver microsomes assessed as parent compound remaining at 0.5 uM after 10 mins; format: ADME, Microsome; details: read-out: Stability
[4] = Metabolic stability in rat liver microsomes assessed as parent compound remaining at 0.5 uM after 10 mins; format: ADME, Microsome; details: read-out: Stability
[5] = Metabolic stability in mouse liver microsomes assessed as parent compound remaining at 0.5 uM after 10 mins; format: ADME, Microsome; details: read-out: Stability
[6] = Fraction unbound in human plasma; format: ADME, cell-free
[7] = Fraction unbound in mouse plasma; format: ADME, cell-free
[8] = Permeability from apical to basolateral side in human Caco2 cells; format: ADME, cell-based; details: Caco-2, read-out: permeability
[9] = Permeability from basolateral to apical side in human Caco2 cells; format: ADME, cell-based; details: Caco-2, read-out: permeability
[10] = Efflux ratio of permeability in human Caco2 cells; format: ADME, cell-based; details: Caco-2
Cytochrome P450 2B6 [11] = biological target: T2, Cytochrome P450 2B6 (Homo sapiens, UniProt P20813); experiment: Inhibition of CYP2B6 in human liver microsomes; format: ADME; details: human, microsomes
T2 sequence (P20813 whole entry): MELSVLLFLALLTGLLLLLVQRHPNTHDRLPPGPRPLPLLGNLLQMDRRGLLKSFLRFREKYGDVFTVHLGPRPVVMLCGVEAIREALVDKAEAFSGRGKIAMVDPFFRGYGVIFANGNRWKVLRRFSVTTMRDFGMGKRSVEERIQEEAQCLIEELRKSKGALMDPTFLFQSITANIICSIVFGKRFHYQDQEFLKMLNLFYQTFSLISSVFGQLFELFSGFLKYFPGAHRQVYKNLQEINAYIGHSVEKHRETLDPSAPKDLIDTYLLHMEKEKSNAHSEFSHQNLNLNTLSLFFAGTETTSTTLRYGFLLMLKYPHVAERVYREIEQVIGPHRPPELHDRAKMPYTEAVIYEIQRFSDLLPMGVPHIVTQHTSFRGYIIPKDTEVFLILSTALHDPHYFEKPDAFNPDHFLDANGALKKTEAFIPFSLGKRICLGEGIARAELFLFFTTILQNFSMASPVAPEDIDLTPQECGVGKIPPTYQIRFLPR

Cytochrome P450 2C8 [12] = biological target: T3, Cytochrome P450 2C8 (Homo sapiens, UniProt P10632); experiment: Inhibition of CYP2C8 in human liver microsomes; format: ADME; details: human, microsomes
T3 sequence (P10632 whole entry): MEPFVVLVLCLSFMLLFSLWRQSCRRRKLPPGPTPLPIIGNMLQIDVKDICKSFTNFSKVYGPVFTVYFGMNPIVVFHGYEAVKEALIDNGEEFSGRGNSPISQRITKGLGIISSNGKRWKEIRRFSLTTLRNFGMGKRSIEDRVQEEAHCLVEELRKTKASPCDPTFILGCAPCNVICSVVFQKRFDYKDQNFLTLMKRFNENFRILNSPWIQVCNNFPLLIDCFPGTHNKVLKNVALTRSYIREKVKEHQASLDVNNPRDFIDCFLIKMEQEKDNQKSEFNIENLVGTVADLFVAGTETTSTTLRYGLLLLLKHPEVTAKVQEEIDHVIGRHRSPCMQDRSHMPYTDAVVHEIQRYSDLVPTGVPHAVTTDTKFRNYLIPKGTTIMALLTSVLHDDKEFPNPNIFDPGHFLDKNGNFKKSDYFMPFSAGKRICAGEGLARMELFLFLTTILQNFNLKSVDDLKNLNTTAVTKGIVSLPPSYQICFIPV

Cytochrome P450 2C9 [13] = biological target: T4, Cytochrome P450 2C9 (Homo sapiens, UniProt P11712); experiment: Inhibition of CYP2C9 in human liver microsomes; format: ADME; details: human, microsomes
Cytochrome P450 2C19 [14] = biological target: T5, Cytochrome P450 2C19 (Homo sapiens, UniProt P33261); experiment: Inhibition of CYP2C19 in human liver microsomes; format: ADME; details: human, microsomes
Cytochrome P450 2D6 [15] = biological target: T6, Cytochrome P450 2D6 (Homo sapiens, UniProt P10635); experiment: Inhibition of CYP2D6 in human liver microsomes; format: ADME; details: human, microsomes
Cytochrome P450 3A4 [16] = biological target: T7, Cytochrome P450 3A4 (Homo sapiens, UniProt P08684); experiment: Inhibition of CYP3A4 in human liver microsomes; format: ADME; details: human, microsomes
Cytochrome P450 2B6 [17] = biological target: T2, Cytochrome P450 2B6; experiment: Time-dependant inhibition of CYP2B6 in human liver microsomes; format: ADME
Cytochrome P450 2C8 [18] = biological target: T3, Cytochrome P450 2C8; experiment: Time-dependant inhibition of CYP2C8 in human liver microsomes; format: ADME
Cytochrome P450 2C9 [19] = biological target: T4, Cytochrome P450 2C9; experiment: Time-dependant inhibition of CYP2C9 in human liver microsomes; format: ADME
Cytochrome P450 2C19 [20] = biological target: T5, Cytochrome P450 2C19; experiment: Time-dependant inhibition of CYP2C19 in human liver microsomes; format: ADME
Cytochrome P450 2D6 [21] = biological target: T6, Cytochrome P450 2D6; experiment: Time-dependant inhibition of CYP2D6 in human liver microsomes; format: ADME
Cytochrome P450 3A4 [22] = biological target: T7, Cytochrome P450 3A4; experiment: Time-dependant inhibition of CYP3A4 in human liver microsomes; format: ADME
[23] = biological target: T1, Sodium channel protein type 9 subunit alpha; experiment: Inhibition of human Nav1.7 expressed in HEK293 cells after 600 secs at -60 mV holding potential by ion works barracuda population patch clamp method; format: cell-based
[24] = Permeability of the compound at pH 5.5 by PAMPA; format: ADME; details: read-out: permeability
[25] = Permeability of the compound at pH 7.4 by PAMPA; format: ADME; details: read-out: permeability

Sodium channel protein type 5 subunit alpha, sequence (Q14524 whole entry): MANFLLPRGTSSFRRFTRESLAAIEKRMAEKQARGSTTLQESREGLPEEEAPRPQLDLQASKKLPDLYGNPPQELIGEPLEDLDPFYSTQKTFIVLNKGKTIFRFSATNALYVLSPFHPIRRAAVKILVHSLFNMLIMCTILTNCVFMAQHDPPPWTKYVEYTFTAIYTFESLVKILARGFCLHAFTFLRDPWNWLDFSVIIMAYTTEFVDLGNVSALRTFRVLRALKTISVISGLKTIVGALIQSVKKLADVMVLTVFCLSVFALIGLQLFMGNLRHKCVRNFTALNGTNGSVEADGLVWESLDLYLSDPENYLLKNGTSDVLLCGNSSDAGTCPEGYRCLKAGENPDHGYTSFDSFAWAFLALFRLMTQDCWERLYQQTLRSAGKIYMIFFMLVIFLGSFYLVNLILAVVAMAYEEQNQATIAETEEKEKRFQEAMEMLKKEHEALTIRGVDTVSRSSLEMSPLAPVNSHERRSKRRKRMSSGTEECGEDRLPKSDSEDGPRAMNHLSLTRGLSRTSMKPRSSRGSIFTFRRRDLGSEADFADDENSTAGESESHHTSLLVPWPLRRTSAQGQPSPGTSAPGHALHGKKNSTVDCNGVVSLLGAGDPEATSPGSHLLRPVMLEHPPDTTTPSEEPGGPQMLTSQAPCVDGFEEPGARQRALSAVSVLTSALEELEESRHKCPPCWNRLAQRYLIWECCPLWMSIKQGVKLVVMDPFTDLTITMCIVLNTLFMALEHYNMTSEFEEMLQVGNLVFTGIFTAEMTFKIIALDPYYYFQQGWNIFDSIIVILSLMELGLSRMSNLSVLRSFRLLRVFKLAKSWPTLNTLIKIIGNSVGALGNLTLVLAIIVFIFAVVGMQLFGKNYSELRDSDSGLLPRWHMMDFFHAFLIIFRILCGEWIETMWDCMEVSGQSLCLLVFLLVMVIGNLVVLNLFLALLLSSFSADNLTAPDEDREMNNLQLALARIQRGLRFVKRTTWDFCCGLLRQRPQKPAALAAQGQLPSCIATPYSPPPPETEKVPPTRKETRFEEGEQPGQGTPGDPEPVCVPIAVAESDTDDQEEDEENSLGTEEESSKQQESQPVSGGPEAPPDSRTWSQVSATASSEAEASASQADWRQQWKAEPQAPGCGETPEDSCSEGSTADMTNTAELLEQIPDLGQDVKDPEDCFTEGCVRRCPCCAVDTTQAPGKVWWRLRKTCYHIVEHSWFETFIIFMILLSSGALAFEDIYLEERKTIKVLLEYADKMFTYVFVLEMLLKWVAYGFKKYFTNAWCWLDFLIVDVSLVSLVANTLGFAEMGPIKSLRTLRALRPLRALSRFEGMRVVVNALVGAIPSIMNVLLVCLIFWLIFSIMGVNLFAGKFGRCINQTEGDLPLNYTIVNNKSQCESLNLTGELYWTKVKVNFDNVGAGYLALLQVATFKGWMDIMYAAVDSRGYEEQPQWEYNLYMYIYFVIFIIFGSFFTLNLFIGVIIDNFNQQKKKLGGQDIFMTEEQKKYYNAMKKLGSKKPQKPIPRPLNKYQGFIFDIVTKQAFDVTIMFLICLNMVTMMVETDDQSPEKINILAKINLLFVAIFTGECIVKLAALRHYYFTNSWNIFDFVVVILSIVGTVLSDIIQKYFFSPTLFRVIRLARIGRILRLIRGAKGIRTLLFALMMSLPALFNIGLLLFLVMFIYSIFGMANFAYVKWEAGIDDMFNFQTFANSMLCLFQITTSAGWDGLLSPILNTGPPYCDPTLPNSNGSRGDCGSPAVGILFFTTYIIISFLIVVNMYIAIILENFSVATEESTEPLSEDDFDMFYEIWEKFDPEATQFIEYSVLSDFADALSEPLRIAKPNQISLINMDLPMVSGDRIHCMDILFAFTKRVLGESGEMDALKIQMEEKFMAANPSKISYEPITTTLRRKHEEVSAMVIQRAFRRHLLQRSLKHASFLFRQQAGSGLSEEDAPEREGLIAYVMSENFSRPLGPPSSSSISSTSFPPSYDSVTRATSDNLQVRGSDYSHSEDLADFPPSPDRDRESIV
T6 sequence (P10635 whole entry): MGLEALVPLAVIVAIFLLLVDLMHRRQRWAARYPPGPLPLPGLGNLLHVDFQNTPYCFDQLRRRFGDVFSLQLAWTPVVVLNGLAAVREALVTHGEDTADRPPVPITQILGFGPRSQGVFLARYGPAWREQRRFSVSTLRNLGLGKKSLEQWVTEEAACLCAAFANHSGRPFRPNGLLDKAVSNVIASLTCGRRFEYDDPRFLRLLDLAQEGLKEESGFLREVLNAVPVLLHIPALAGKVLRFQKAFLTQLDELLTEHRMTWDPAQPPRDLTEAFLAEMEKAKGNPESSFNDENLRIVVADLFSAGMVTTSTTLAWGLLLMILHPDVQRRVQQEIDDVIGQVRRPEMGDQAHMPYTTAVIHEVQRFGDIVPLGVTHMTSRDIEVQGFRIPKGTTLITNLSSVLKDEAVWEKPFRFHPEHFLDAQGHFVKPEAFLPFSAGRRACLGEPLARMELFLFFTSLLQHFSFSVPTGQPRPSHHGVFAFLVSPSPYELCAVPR
T7 sequence (P08684 whole entry): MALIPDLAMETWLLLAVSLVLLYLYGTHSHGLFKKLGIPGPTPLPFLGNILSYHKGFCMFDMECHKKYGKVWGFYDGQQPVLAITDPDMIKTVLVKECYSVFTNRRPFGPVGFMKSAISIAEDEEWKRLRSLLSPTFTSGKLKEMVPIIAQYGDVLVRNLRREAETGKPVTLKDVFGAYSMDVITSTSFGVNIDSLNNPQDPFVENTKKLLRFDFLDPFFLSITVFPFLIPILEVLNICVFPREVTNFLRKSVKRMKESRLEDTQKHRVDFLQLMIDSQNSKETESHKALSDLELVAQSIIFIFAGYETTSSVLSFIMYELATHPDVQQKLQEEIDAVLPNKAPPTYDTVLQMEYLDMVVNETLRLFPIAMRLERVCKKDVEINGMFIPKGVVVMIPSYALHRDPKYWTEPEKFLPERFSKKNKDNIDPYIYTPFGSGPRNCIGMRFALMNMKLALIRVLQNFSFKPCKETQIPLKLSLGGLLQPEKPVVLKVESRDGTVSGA
T1 sequence (Q15858 whole entry): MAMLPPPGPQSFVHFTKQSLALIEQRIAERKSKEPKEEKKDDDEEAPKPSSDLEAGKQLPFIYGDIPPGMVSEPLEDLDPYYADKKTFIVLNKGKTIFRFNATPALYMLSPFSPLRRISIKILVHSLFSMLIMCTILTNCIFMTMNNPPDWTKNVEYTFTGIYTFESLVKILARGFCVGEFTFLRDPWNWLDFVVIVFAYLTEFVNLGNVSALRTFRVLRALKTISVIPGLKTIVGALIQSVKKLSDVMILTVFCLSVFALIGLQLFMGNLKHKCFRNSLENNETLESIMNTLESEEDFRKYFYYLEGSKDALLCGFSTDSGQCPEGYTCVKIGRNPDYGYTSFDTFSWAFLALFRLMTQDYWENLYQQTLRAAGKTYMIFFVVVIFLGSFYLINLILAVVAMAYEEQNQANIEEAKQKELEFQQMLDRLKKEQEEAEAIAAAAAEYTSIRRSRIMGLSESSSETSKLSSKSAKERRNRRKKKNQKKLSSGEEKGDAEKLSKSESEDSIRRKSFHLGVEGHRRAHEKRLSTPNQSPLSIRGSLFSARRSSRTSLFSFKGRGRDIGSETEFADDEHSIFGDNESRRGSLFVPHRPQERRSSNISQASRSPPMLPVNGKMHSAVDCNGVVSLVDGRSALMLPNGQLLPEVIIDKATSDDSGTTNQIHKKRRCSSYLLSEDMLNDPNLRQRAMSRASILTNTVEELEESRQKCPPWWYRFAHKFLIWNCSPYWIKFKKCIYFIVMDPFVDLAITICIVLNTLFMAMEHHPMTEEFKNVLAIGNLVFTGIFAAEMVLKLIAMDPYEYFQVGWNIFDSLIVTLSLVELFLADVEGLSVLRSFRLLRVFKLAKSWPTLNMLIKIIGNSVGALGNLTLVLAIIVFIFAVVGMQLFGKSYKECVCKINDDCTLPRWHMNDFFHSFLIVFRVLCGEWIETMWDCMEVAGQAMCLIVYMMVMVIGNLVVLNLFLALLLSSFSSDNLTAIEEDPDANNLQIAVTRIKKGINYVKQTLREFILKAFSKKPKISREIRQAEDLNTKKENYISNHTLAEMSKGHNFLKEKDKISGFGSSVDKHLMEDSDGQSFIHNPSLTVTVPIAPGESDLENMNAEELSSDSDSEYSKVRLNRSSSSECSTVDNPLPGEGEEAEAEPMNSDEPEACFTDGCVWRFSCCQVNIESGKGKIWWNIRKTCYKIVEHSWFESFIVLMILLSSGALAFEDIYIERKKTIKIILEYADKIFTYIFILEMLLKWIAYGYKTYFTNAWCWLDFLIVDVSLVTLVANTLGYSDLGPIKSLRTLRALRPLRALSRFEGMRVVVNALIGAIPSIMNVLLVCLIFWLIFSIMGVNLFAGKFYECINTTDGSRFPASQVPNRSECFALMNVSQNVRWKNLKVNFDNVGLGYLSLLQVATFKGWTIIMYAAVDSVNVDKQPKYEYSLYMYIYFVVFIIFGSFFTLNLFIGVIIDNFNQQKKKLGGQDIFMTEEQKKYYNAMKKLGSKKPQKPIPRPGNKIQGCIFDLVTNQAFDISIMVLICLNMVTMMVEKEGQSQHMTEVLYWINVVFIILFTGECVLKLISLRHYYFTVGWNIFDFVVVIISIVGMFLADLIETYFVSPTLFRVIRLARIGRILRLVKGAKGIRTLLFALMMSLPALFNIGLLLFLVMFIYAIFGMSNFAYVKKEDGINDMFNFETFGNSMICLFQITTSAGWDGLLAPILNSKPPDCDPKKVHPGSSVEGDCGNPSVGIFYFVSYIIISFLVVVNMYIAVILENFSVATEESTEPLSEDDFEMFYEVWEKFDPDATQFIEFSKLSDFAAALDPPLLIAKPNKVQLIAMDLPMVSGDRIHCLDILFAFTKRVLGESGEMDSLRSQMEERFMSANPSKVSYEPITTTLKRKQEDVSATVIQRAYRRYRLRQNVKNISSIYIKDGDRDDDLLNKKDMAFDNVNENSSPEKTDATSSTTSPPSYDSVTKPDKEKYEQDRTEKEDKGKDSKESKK

SMILES | IC50 [1] [nM] | IC50 [2] [nM] | remaining at 10 min, 0.5 µM [3] [%] | remaining at 10 min, 0.5 µM [4] [%] | remaining at 10 min, 0.5 µM [5] [%] | fraction unbound [7] | inhibition (INH) (Cytochrome P450 2B6 [11]) | inhibition (INH) (Cytochrome P450 2C8 [12]) | inhibition (INH) (Cytochrome P450 2C9 [13]) | inhibition (INH) (Cytochrome P450 2C19 [14]) | inhibition (INH) (Cytochrome P450 2D6 [15]) | inhibition (INH) (Cytochrome P450 3A4 [16]) | TDI (Cytochrome P450 2B6 [17]) | TDI (Cytochrome P450 2C8 [18]) | TDI (Cytochrome P450 2C9 [19]) | TDI (Cytochrome P450 2C19 [20]) | TDI (Cytochrome P450 2D6 [21]) | TDI (Cytochrome P450 3A4 [22]) | IC50 [23] [nM] | Papp [24] [×10⁻⁶ cm/s] | other results
CC(C)Cc1ccc(-c2cn(C)c3cc(C(=O)NS(C)(=O)=O)ccc23)cc1 | > 30000 | 23 | 100 | 94 | 100 | 0.003 | Not Active | Not Active | Not Active | Not Active | Not Active | Not Active | Not Active | Not Active | Not Active | Not Active | Not Active | Not Active |  |  | fraction unbound [6]: 0.001; Papp A→B [8]: < 1.5 ×10⁻⁶ cm/s; Papp B→A [9]: 7.8 ×10⁻⁶ cm/s; efflux ratio [10]: > 6.2
Cn1nc(-c2ccc(C(F)(F)F)cc2)c2cc(F)c(C(=O)NS(=O)(=O)C3CC3)cc21 | 6400 | 21 | 100 | 100 | 100 | 0.008 | Not Active | Not Active | Not Active | Not Active | Not Active | Not Active | Not Active | Not Active | Not Active | Not Active | Not Active | Not Active | 13 | 59.2 | Papp [25]: 10.2 ×10⁻⁶ cm/s; Papp A→B [8]: < 1.5 ×10⁻⁶ cm/s; Papp B→A [9]: 31.2 ×10⁻⁶ cm/s; efflux ratio [10]: > 21
Cn1cc(-c2ccc(C(F)(F)F)cc2)c2ccc(C(=O)NS(=O)(=O)C3CC3)cc21 | 8400 | 8 | 87 | 92 | 87 | 0.004 | Not Active | Not Active | Not Active | Not Active | Not Active | Not Active | Not Active | Not Active | Not Active | Not Active | Not Active | Not Active | 104 | 52.5 | fraction unbound [6]: 0.002; Papp [25]: 13.5 ×10⁻⁶ cm/s
CC(C)COc1ccc(-c2nn(C)c3cc(C(=O)NS(=O)(=O)C4CC4)c(F)cc23)cn1 | 11000 | 43 | 91 | 88 | 92 | 0.011 | Not Active | Not Active | Not Active | Not Active | Not Active | Not Active | Not Active | Not Active | Not Active | Not Active | Not Active | Not Active | 45 | 76.2 | Papp [25]: 10 ×10⁻⁶ cm/s
CC(C)COc1ncc(-c2cn(C)c3cc(C(=O)NS(C)(=O)=O)ccc23)cc1C#N | 21000 |  |  |  |  |  |  |  |  |  |  |  |  |  |  |  |  |  | 70 |  | 
